{"source": "patent US20260207758A1", "about": "“NA[…]-BASED CONJUGATE FOR […] INTO B CELL AND T CELL AND USES THEREOF” (priority 2022, published 2026)", "assay_type_in_all_cases": "cell-based", "key": {"[1]": {"test_system": "B cells (primary CD19+ B cells)", "experiment": "Binding of Cy5.5-labeled targeting peptide, confocal microscopy", "settings": "100 μM Cy5.5-labeled peptide, 1 hour", "procedure": "(§1) A B cell/T cell targeting peptide (BTBP, SEQ ID NO: 17) was labeled with Cy5.5, and B cells (primary CD19+ B cells, PCS-800-018, ATCC) and T cells (primary CD8+ cytotoxic T cells, PCS-800-017, ATCC) were treated with 100 μM of the peptide for 1 hour. Then, the cells were fixed with 4% neutral formalin solution and measured using a confocal scanning microscope (LSM980 with Airyscan2, Carl Zeiss). […] Therefore, it was confirmed that BTBP effectively targeted both the B cells and the T cells."}, "[2]": {"test_system": "T cells (primary CD8+ cytotoxic T cells)", "experiment": "Binding of Cy5.5-labeled targeting peptide, confocal microscopy", "settings": "100 μM Cy5.5-labeled peptide, 1 hour", "procedure": "as §1"}, "[3]": {"test_system": "B cells (primary CD19+ B cells)", "experiment": "Binding of Cy5.5-labeled targeting peptide, flow cytometry", "settings": "Cy5.5-labeled peptide", "procedure": "as §1\n(§2) In addition, the cells were washed three times with DPBS containing 5% FBS, and cells bound with Cy5.5-labeled BTBP were analyzed using flow cytometry (FIG. 7). As a result, it could be confirmed that the peptide of SEQ ID NO: 17 bound to B cells and T cells."}, "[4]": {"test_system": "T cells (primary CD8+ cytotoxic T cells)", "experiment": "Binding of Cy5.5-labeled targeting peptide, flow cytometry", "settings": "Cy5.5-labeled peptide", "procedure": "as §1, §2"}}}
{"sequence": "HTHGAARVPDHR [BTBP]", "values": [{"measurement": "fluorescence intensity in cell membranes", "setting": "[1]", "result": "significantly increased"}, {"measurement": "fluorescence intensity in cell membranes", "setting": "[2]", "result": "significantly increased"}, {"measurement": "binding to cells by flow cytometry", "setting": "[3]", "result": "bound"}, {"measurement": "binding to cells by flow cytometry", "setting": "[4]", "result": "bound"}]}
